Results published in ChEMBL document CHEMBL5131451, “BOPPY-based novel fluorescent dopamine D2 and D3 receptor ligands” (Bioorg Med Chem Lett, 2022).

How the values were obtained:
Homo sapiens = species on record: Homo sapiens; experiment: Ratio of Ki for binding affinity to D2S (unknown origin) to Ki for binding affinity to D3R (unknown origin)
D(2) dopamine receptor = D(2) dopamine receptor (Homo sapiens, UniProt P14416); experiment: Binding affinity to dopamine D2S receptor (unknown origin) by radioligand displacement assay
D(3) dopamine receptor = D(3) dopamine receptor (Homo sapiens, UniProt P35462); experiment: Binding affinity to dopamine D3 receptor (unknown origin) by radioligand displacement assay
Sequence of D(3) dopamine receptor (P35462 whole entry): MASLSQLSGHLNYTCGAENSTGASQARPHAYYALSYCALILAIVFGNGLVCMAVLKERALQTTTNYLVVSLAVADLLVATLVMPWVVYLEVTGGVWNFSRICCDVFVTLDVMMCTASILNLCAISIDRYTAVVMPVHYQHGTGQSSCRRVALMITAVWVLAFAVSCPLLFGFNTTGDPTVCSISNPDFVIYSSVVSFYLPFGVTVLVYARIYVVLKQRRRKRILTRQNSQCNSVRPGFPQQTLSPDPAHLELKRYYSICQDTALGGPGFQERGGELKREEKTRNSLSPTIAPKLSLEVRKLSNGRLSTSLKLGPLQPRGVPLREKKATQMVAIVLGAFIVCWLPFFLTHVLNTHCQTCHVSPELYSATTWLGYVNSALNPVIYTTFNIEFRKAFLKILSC

Sequence of D(2) dopamine receptor (P14416 whole entry): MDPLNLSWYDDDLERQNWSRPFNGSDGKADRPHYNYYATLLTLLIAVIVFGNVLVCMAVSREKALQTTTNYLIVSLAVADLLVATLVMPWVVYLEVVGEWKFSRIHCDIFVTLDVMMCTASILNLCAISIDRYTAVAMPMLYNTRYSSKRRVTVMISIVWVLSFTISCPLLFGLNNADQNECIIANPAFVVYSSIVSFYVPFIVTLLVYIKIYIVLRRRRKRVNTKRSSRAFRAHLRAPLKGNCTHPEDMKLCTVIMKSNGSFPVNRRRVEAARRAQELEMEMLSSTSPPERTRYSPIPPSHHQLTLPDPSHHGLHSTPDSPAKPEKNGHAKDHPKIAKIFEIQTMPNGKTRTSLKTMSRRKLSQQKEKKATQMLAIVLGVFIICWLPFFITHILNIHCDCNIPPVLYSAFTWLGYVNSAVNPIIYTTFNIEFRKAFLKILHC

| SMILES | Ratio Ki (Homo sapiens) | Ki (D(2) dopamine receptor) | Ki (D(3) dopamine receptor) |
| --- | --- | --- | --- |
| CCc1c(C)c2n(c1C)[B-](F)(F)[N+]1=C3C=CC=C(NCCCCN4CCN(c5cccc(Cl)c5Cl)CC4)N3[B-](F)(F)[N+]1=C2 | 9 | 0.497 µM | 0.0521 µM |
| COc1ccccc1N1CCN(CCCCNC2=CC=CC3=[N+]4[N+](=Cc5c(C)cc(C)n5[B-]4(F)F)[B-](F)(F)N23)CC1 | 3 | 0.0811 µM | 0.0272 µM |
| CCc1c(C)c2n(c1C)[B-](F)(F)[N+]1=C3C=CC=C(NCCCCN4CCN(c5ccccc5OC)CC4)N3[B-](F)(F)[N+]1=C2 | 9.5 | 0.309 µM | 0.0343 µM |
| Cc1cc(C)n2c1C=[N+]1[N+](=C3C=CC=C(NCCCCN4CCN(c5cccc(Cl)c5Cl)CC4)N3[B-]1(F)F)[B-]2(F)F | 14.6 | 0.328 µM | 0.0225 µM |
| COc1ccccc1N1CCN(CCCCNC2=CC=CC3=[N+]4[N+](=Cc5cc6ccccc6n5[B-]4(F)F)[B-](F)(F)N23)CC1 | 10.9 | 0.182 µM | 0.0167 µM |
